Results: patent US20230145835A1, “Modulators of Alpha-4-beta-7 Integrin and MAdCAM” (48HD Biopharma Inc., priority 2021, published 2023)
Numbered stars: 1 amine (or outer) side, 2 acyl side, 3 side chain; on linkers, the order of the positions; unused ones are H or OH. Bridge positions count the residues as written; N and C are the ends. Square brackets hold non-standard residues; d marks the D form. Peptide text beside a SMILES is read from it. X3 = O=C(/C=N/OCCCCCCOc1cc(C[*:2])cc(C[*:3])c1)[*:1]; X1 = O=C(C=NOCCCCCCOc1cc(C[*:2])cc(C[*:3])c1)[*:1]; X5 = O=C(CCCCCCOc1cc(C[*:2])cc(C[*:3])c1)[*:1]; tBuAla = CC(C)(C)C[C@H](N)C(=O)O; Cba = N[C@@H](CC1CCC1)C(=O)O; hSer = N[C@@H](CCO)C(=O)O; Nle = CCCC[C@H](N)C(=O)O

target: T1, rh-integrin α4β7/LPAM-1 (Homo sapiens, UniProt P13612+P26010); assay: α4β7-MadCAM Competition ELISA (Example 4); format: binding; details: Table 3 Representative compounds; inhibition of MAdCAM binding to coated α4β7; read-out: IC50
T1 sequence (P13612 34-977 limits assumed): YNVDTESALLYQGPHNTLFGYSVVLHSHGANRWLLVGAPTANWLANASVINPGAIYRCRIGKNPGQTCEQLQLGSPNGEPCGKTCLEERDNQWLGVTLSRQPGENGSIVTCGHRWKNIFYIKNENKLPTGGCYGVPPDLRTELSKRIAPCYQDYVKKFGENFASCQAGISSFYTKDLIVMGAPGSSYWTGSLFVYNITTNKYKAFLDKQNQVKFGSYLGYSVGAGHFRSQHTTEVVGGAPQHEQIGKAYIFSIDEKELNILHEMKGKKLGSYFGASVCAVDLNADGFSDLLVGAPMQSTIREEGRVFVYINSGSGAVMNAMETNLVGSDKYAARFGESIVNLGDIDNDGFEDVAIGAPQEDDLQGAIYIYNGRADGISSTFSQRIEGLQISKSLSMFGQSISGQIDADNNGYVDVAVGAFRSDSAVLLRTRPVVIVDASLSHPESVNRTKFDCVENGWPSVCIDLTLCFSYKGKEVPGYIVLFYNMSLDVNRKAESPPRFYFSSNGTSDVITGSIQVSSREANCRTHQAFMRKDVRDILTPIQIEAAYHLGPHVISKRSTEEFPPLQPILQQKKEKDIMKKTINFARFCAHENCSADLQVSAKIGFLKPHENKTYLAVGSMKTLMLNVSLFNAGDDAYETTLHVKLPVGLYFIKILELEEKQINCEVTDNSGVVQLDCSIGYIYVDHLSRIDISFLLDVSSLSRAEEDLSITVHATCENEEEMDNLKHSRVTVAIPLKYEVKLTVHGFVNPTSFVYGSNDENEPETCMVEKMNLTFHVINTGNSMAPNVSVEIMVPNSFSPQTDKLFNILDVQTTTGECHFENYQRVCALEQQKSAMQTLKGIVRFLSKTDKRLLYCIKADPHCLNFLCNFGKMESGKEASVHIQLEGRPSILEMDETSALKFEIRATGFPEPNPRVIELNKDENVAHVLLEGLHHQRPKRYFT
T1 sequence (P26010 20-723 limits assumed): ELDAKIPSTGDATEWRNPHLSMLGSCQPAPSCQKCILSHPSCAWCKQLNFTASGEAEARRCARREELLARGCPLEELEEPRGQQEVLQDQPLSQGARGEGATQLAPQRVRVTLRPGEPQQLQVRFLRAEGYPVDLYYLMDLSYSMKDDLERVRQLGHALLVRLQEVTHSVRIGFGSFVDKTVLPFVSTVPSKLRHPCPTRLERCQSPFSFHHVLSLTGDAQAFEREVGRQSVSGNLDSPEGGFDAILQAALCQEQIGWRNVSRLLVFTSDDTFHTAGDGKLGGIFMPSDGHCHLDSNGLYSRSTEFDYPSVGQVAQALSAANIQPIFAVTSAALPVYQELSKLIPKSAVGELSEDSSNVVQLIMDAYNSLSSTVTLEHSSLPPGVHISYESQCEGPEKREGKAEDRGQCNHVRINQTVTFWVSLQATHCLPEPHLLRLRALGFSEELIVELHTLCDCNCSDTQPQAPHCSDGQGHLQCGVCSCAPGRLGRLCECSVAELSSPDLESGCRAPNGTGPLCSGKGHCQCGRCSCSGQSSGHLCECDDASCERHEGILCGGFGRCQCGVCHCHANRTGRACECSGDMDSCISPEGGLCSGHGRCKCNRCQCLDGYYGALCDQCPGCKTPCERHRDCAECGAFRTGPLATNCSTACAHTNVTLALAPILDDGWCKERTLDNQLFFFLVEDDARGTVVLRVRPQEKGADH
Protocol: After washing with wash buffer, 200 μL assay buffer was added to each well and incubated for one hour at 28° C. After another wash with wash buffer, 100 μL of a MAdCAM and peptide mixture in assay buffer was added to each well and incubated for one hour at 28° C., followed by washing with wash buffer.

**Q.** For CCCC[C@@H]1NC(=O)[C@@H]2CCCN2C(=O)[C@@H]2CSCc3cc(cc(c3)OCCCCCCO/N=C/C(=O)N[C@@H](CCCNC(=N)N)C(=O)N2)CSC[C@@H](C(N)=O)NC(=O)[C@H](CCC(=O)O)NC(=O)[C@H](CCC(N)=O)NC(=O)[C@H](Cc2c[nH]c3ccccc23)NC(=O)[C@H](CC2CCC2)NC(=O)[C@H](CC(=O)O)NC1=O [compound 55, TSL6-SRCP{Nle}D {CbA}WQEC] (RCP[Nle]D[Cba]WQEC-NH2; linker N-2-10 via X3), which IC50 is on record?
**A.** 3450 nM

**Q.** With CC(C)[C@@H]1NC(=O)[C@H](CCCCN)NC(=O)[C@@H]2CCCN2C(=O)[C@@H]2CCCN2C(=O)[C@H](CC(=O)O)NC(=O)[C@H](Cc2cnc[nH]2)NC(=O)[C@@H]2CSCc3cc(cc(c3)OCCCCCCO/N=C/C(=O)N[C@@H](CO)C(=O)N2)CSC[C@@H](C(N)=O)NC1=O [compound 77, TSL6- SKCPADVPSC] (SCHDPPKVC-NH2; linker N-2-9 via X3) as the molecule, how does the IC50 read?
**A.** 41100 nM

**Q.** Which IC50 does the source give for CC[C@H](C)[C@@H]1NC(=O)[C@H](CC(=O)O)NC(=O)[C@H](CCSC)NC(=O)[C@@H]2CCCN2C(=O)[C@@H]2CSCc3cc(cc(c3)OCCCCCCO/N=C/C(=O)N[C@@H](CCCNC(=N)N)C(=O)N2)CSC[C@@H](C(N)=O)NC(=O)[C@H](CCC(=O)O)NC(=O)CNC(=O)[C@H](C)NC1=O [compound 13] (RCPMDIAGEC-NH2; linker N-2-10 via X3) here?
**A.** 227 nM

**Q.** Which IC50 does the source give for CSCC[C@@H]1NC(=O)[C@@H]2CCCN2C(=O)[C@@H]2CSCc3cc(cc(c3)OCCCCCCO/N=C/C(=O)N[C@@H](C)C(=O)N2)CSC[C@@H](C(N)=O)NC(=O)[C@H](CCC(=O)O)NC(=O)CNC(=O)[C@H](C)NC(=O)[C@H](C(C)C)NC(=O)[C@H](CC(=O)O)NC1=O [compound 61, TSL6- SACPMDVAGEC] (ACPMDVAGEC-NH2; linker N-2-10 via X3) here?
**A.** 5980 nM

**Q.** For CSCC[C@@H]1NC(=O)[C@H](CCC(N)=O)NC(=O)[C@@H]2CSCc3cc(cc(c3)OCCCCCCO/N=C/C(=O)N[C@@H](Cc3ccccc3)C(=O)N2)CSC[C@@H](C(N)=O)NC(=O)[C@H](C)NC(=O)[C@H](CCCCN)NC(=O)[C@H](CCC(=O)O)NC(=O)[C@H](Cc2ccccc2)NC1=O [compound 102, TSL6- SFCQMFEKAC] (FCQMFEKAC-NH2; linker N-2-9 via X3), which IC50 is on record?
**A.** 178000 nM

**Q.** For CC[C@H](C)[C@@H]1NC(=O)[C@H](CC(=O)O)NC(=O)[C@H](CCSC)NC(=O)[C@@H]2CCCN2C(=O)[C@@H]2CSCc3cc(cc(c3)OCCCCCCO/N=C/C(=O)N[C@@H](CCCNC(=N)N)C(=O)N2)CSC[C@@H](C(N)=O)NC(=O)[C@H]([C@@H](C)O)NC(=O)[C@@H]2CCCN2C1=O [compound 20] (RCPMDIPTC-NH2; linker N-2-9 via X3), which IC50 is on record?
**A.** 404 nM

**Q.** With CC[C@H](C)[C@@H]1NC(=O)[C@H](CC(=O)O)NC(=O)[C@H](CCSC)NC(=O)[C@@H]2CCCN2C(=O)[C@@H]2CSCc3cc(cc(c3)OCCCCCCO/N=C/C(=O)N[C@@H](C)C(=O)N2)CSC[C@@H](C(N)=O)NC(=O)[C@H]([C@@H](C)O)NC(=O)[C@@H]2CCCN2C1=O [compound 37, TSL6- SACPMDIPTC] (ACPMDIPTC-NH2; linker N-2-9 via X3) as the molecule, how does the IC50 read?
**A.** 943 nM

**Q.** How did the IC50 turn out when CC(C)C[C@@H]1NC(=O)[C@H]([C@@H](C)O)NC(=O)[C@H](CC(=O)O)NC(=O)[C@H](CO)NC(=O)[C@H](CCCNC(=N)N)N(C)C(=O)CCSC[C@@H](C(=O)N[C@@H](Cc2c[nH]c3ccccc23)C(=O)N[C@@H](CCCCN)C(N)=O)NC1=O [compound 2] was run?
**A.** 33 nM

**Q.** How did the IC50 turn out when COCC[C@@H]1NC(=O)[C@@H]2CCCN2C(=O)[C@@H]2CSCc3cc(cc(c3)OCCCCCCC(=O)NCC(=O)N[C@@H](CCCNC(=N)N)C(=O)N2)CSC[C@@H](C(N)=O)NC(=O)[C@H](CCC(=O)O)NC(=O)[C@H](CCC(N)=O)NC(=O)[C@@H]2CCCN2C(=O)[C@H](CC(C)(C)C)NC(=O)[C@H](CC(=O)O)NC1=O [compound 80, TSLC7-GQCP{Hse(OMe)} D{tBuAla}PQEC] (GRCP[hSer](Me)D[tBuAla]PQEC-NH2; linker N-3-11 via X5) was run?
**A.** 55900 nM

**Q.** CC[C@H](C)[C@@H]1NC(=O)[C@H](CC(=O)O)NC(=O)[C@H](CCOC)NC(=O)[C@@H]2CCCN2C(=O)[C@@H]2CSCc3cc(cc(c3)OCCCCCCO/N=C/C(=O)N[C@@H](CCCNC(=N)N)C(=O)N2)CSC[C@@H](C(N)=O)NC(=O)[C@H](CCC(=O)O)NC(=O)[C@H](CCC(N)=O)NC(=O)[C@H](Cc2c[nH]c3ccccc23)NC1=O [compound 14] (RCP[hSer](Me)DIWQEC-NH2; linker N-2-10 via X3) was tested. Which IC50 did it give?
**A.** 260 nM

**Q.** With CCCC[C@@H]1NC(=O)[C@@H]2CCCN2C(=O)[C@@H]2CSCc3cc(cc(c3)OCCCCCCC(=O)NCC(=O)N[C@@H](CCCNC(=N)N)C(=O)N2)CSC[C@@H](C(N)=O)NC(=O)[C@H](CCC(=O)O)NC(=O)[C@H](CCC(N)=O)NC(=O)[C@H](Cc2c[nH]c3ccccc23)NC(=O)[C@H]([C@@H](C)CC)NC(=O)[C@H](CC(=O)O)NC1=O [compound 4] (GRCP[Nle]DIWQEC-NH2; linker N-3-11 via X5) as the molecule, how does the IC50 read?
**A.** 75 nM

**Q.** Which IC50 does the source give for CC(=O)N[C@H]1CSSC[C@@H](C(N)=O)NC(=O)[C@H](CC(C)C)NC(=O)[C@H]([C@@H](C)O)NC(=O)[C@H](CC(=O)O)NC(=O)[C@H](CO)NC(=O)[C@H](CCCNC(=N)N)NC1=O [compound 5] (Ac-CRSDTLC-NH2; disulfide 1-7) here?
**A.** 122 nM

**Q.** How did the IC50 turn out when CC[C@H](C)[C@@H]1NC(=O)[C@H](CC(=O)O)NC(=O)[C@H](CCSC)NC(=O)[C@@H]2CCCN2C(=O)[C@@H]2CSCc3cc(cc(c3)OCCCCCCO/N=C/C(=O)N[C@@H](CCCCN)C(=O)N2)CSC[C@@H](C(N)=O)NC(=O)[C@H]([C@@H](C)O)NC(=O)[C@@H]2CCCN2C1=O [compound 18] (KCPMDIPTC-NH2; linker N-2-9 via X3) was run?
**A.** 345 nM

same assay, conditions: competition ELISA, 4 μg/mL α4β7 coated, MAdCAM and peptide mixture, 28° C.; read-out: IC50

**Q.** For CC[C@H](C)[C@@H]1NC(=O)[C@H](C)NC(=O)[C@H](CCSC)NC(=O)[C@@H]2CCCN2C(=O)[C@@H]2CSCc3cc(cc(c3)OCCCCCCON=CC(=O)N[C@@H](CCC(N)=O)C(=O)N2)CSC[C@@H](C(=O)O)NC(=O)[C@H]([C@@H](C)O)NC(=O)[C@@H]2CCCN2C1=O [SEQ ID NO: 49] (QCPMAIPTC-OH; linker N-2-9 via X1), which IC50 is on record?
**A.** > 500000 nM

**Q.** With COCC[C@@H]1NC(=O)[C@@H]2CCCN2C(=O)[C@@H]2CSCc3cc(cc(c3)OCCCCCCC(=O)NCC(=O)N[C@@H](CCC(N)=O)C(=O)N2)CSC[C@@H](C(=O)O)NC(=O)[C@H](CCC(=O)O)NC(=O)[C@H](CCC(N)=O)NC(=O)[C@@H]2CCCN2C(=O)[C@H](CC(C)(C)C)NC(=O)[C@H](CC(=O)O)NC1=O [SEQ ID NO: 89] (GQCP[hSer](Me)D[tBuAla]PQEC-OH; linker N-3-11 via X5; C-terminus assumed) as the molecule, how does the IC50 read?
**A.** 55900 nM

**Q.** Which IC50 does the source give for CCCC[C@@H]1NC(=O)[C@@H]2CCCN2C(=O)[C@@H]2CSCc3cc(cc(c3)OCCCCCCC(=O)NCC(=O)N[C@@H](CCCNC(=N)N)C(=O)N2)CSC[C@@H](C(=O)O)NC(=O)[C@H](CCC(=O)O)NC(=O)[C@H](CCC(N)=O)NC(=O)[C@H](Cc2c[nH]c3ccccc23)NC(=O)[C@H]([C@@H](C)CC)NC(=O)[C@H](CC(=O)O)NC1=O [SEQ ID NO: 147] (GRCP[Nle]DIWQEC-OH; linker N-3-11 via X5; C-terminus assumed) here?
**A.** 75 nM

**Q.** CC(C)C[C@@H]1NC(=O)[C@@H]2CCCN2C(=O)[C@@H](NC(=O)[C@H](CCCCN)NC(=O)[C@@H](N)CO)CSSC[C@@H](C(=O)O)NC(=O)[C@H](CCC(=O)O)NC(=O)[C@H](Cc2ccc(O)cc2)NC(=O)[C@@H]2CCCN2C(=O)[C@H]([C@@H](C)O)NC(=O)[C@H](CC(=O)O)NC1=O [SEQ ID NO: 152] (H-SKCPLDTPYEC-OH; disulfide 3-11; N-terminus and C-terminus assumed) was tested. Which IC50 did it give?
**A.** 552 nM
